In US20210023012A1, “Solid Pharmaceutical Compositions for Treating HCV” (AbbVie Inc., priority 2019, published 2021):
Marks after values point to notes of the source that are not given here.

How the values were obtained:
Blood-to-plasma ratio = format: in vitro ADME; settings: human, whole blood/plasma
[1] = Predicted PK exposures (Pop-PK AUC) in pediatric subjects; format: in vivo; design: concentration or dose not given beside the values; settings: human, oral
Description: The predicted PK exposures (“Pop-PK AUC”) of Compound 1/Compound 2 based on all PK information collected in the study (including data from other study weeks) is shown in Table 13 and Table 13a.

[2] = Phase 1 single-dose crossover: bioavailability and food effect of Compound 1/Compound 2 bilayer tablets; format: in vivo, human; settings: for Cmax / AUC(0-inf) / AUC(0-t) / half-life / Tmax: human, in vivo, oral, N = 23; for Cmax / AUC(0-inf) / AUC(0-t): geometric mean; for half-life: harmonic mean; for Tmax: median
Procedure: Phase 1, single-dose, four-period, randomized, complete crossover clinical trials were conducted to determine the bioavailability and food effect of the Compound 1/Compound 2 film-coated bilayer tablets. Tablets described in Table 1b were used in Regimens A, B and C, and separate tablets containing either Compound 1 or Compound 2 were used in Regimen D. Subjects took a single dose of Compound 1/Compound 2 on Day 1 of each Period. There was a washout of 4 days between doses. • i. Regimens A and D: study drugs were taken under fasting conditions. • ii. Regimen B: study drugs were taken approximately 30 minutes after start of moderate-fat breakfast (about 30% calories from fat). • iii. Regimen C: study drugs were taken approx. 30 minutes after start of high-fat breakfast (50% calories from fat). For Regimens A, B and C, the single dose consisted of three tablets of Table 1b, each tablet contains 100 mg/40 mg Compound 1/Compound 2. For Regimen D, the single dose contained three tablets of Compound 1, each of which contained 100 mg Compound 1, as well as three tablets of Compound 2, each of which contained 40 mg Compound 2. [table] [table]

[3] = as above; format: in vivo, human; settings: film-coated vs uncoated bilayer tablets, additional studies
[4] = Binding to human plasma proteins; format: in vitro ADME; settings: read-out: % Bound to human plasma proteins (converted)
[5] = Single-dose crossover: bioavailability of Compound 1/Compound 2 mini-tablets; format: in vivo, human; settings: for Cmax / AUC(0-inf) / AUC(0-t) / half-life / Tmax: human, in vivo, oral, N = 14; for Cmax / AUC(0-inf) / AUC(0-t): geometric mean; for half-life: harmonic mean; for Tmax: median
Procedure: In comparison, when administered with food, the mini-tablets provided an AUC that was only 5% lower than that provided by the regular tablets. […] All of the reference AUCs of the regular tablets were measured under fasting conditions.
14 subjects were enrolled in this study and dosed with co-formulated Compound 1/Compound 2 in mini-tablets. One subject spilled 4 mini-tablets (out of 100-150 total mini-tablets) during dosing of Period 2 (Regimen G) and was not excluded from the analysis. The mini-tablets were prepared according to a process similar to that described in Example 2.

[6] = Steady-state pharmacokinetics of film-coated granules in pediatric subjects by age group; format: in vivo, human; design: Ctrough: unit not given here; settings: for Ctrough / AUC: Week 2; for AUC: human, oral, film-coated granules
Procedure: The study was designed to assess the steady state AUC and to assess the pharmacokinetics (PK) of Compound 1/Compound 2 in pediatric subjects by age group. […] Subjects were enrolled in this study and dosed with film-coated granules containing Compound 1/Compound 2 as generally described above in Example 3. [table] An intensive PK sample draw was done at the Week 2 visit with blood samples taken immediately prior to dose (0 hour) and at 2, 4, 6, and 12 hours post dose.

[7] = Pharmacokinetic properties in healthy subjects; format: in vivo, human; settings: for Tmax: oral, median, single doses
clinical = settings: human, in vivo
Description: Target AUC was derived from the geometric mean of AUC values from a population of adult subjects who received Compound 1 and Compound 2.

[8] = Mass balance studies with [14C] compound, single dose; format: in vivo, human; settings: single dose of [14C] compound
[9] = Regimen A: single dose bilayer tablets 300 mg/120 mg, fasting
[10] = Regimen B: single dose bilayer tablets 300 mg/120 mg with moderate fat breakfast
[11] = Regimen C: single dose bilayer tablets 300 mg/120 mg with high fat breakfast
[12] = Regimen D: single dose separate Compound 1 tablets (3 × 100 mg) and Compound 2 tablets (3 × 40 mg), fasting
[13] = Regimen F: single dose mini-tablets 200 mg/120 mg, fasting
[14] = Regimen G: single dose mini-tablets 200 mg/120 mg, non-fasting
[15] = Regimen J: two Compound 1 tablets (100 mg each) and three Compound 2 tablets (40 mg each), fasting
[16] = mean systemic exposure with moderate to high fat meals

- blood plasma ratio (Blood-to-plasma ratio): 0.57
- AUC ([1]; blood, Table 13, 3 to <6 years old, N 10, predicted): 6310 ng·h/mL
- AUC ([1]; blood, Table 13, 6 to <9 years old, N 9, predicted): 5770 ng·h/mL
- AUC ([1]; blood, Table 13, 9 to <12 years old, N 10, predicted from all PK information collected in the study): 5180 ng·h/mL
- AUC ([1]; in vivo, Table 13a, 3 to <6 years old, N 10, predicted): 8990 ng·h/mL
- AUC ([1]; in vivo, Table 13a, 6 to <9 years old, N 9, predicted): 5160 ng·h/mL
- AUC ([1]; in vivo, Table 13a, 9 to <12 years old, N 10, predicted): 8120 ng·h/mL
- Effect of administration with food on bioavailability ([2]; bilayer tablets): significantly improved
- Cmax ([2]; Regimen A: single dose bilayer tablets 300 mg/120 mg (3 × 100 mg/40 mg), fasting): 294 ng/mL
- AUC(0-inf) [2, 9]: 1150 ng·h/mL
- AUC(0-t) [2, 9]: 1150 ng·h/mL
- half-life [2, 9]: 360 min
- Tmax [2, 9]: 3 h
- AUC(0-inf) [2, 10]: 3040 ng·h/mL
- AUC(0-t) [2, 10]: 3040 ng·h/mL
- Cmax [2, 10]: 937 ng/mL
- half-life [2, 10]: 360 min
- Tmax [2, 10]: 4 h
- AUC(0-inf) [2, 11]: 2120 ng·h/mL
- AUC(0-t) [2, 11]: 2110 ng·h/mL
- Cmax [2, 11]: 633 ng/mL
- half-life [2, 11]: 378 min
- Tmax [2, 11]: 5 h
- AUC(0-inf) [2, 12]: 2620 ng·h/mL
- AUC(0-t) [2, 12]: 2620 ng·h/mL
- Cmax [2, 12]: 803 ng/mL
- half-life [2, 12]: 342 min
- Tmax [2, 12]: 2 h
- Impact of film-coating on bioavailability [3]: minimal impact
- fraction unbound [4]: 0.025
- Effect of administration with food on bioavailability ([5]; co-formulated mini-tablets): significantly increased
- Cmax ([5]; Regimen F: single dose mini-tablets 200 mg/120 mg Compound 1/Compound 2, fasting): 123 ng/mL
- AUC(0-inf) [5, 13]: 432 ng·h/mL
- AUC(0-t) [5, 13]: 428 ng·h/mL
- half-life [5, 13]: 337 min
- Tmax [5, 13]: 1 h
- Cmax ([5]; Regimen G: single dose mini-tablets 200 mg/120 mg Compound 1/Compound 2, non-fasting): 166 ng/mL
- AUC(0-inf) [5, 14]: 704 ng·h/mL
- AUC(0-t) [5, 14]: 699 ng·h/mL
- half-life [5, 14]: 385 min
- Tmax [5, 14]: 1.75 h
- Cmax ([5]; Regimen J: single dose two Compound 1 tablets (100 mg each) and three Compound 2 tablets (40 mg each), fasting): 212 ng/mL
- AUC(0-inf) [5, 15]: 742 ng·h/mL
- AUC(0-t) [5, 15]: 738 ng·h/mL
- half-life [5, 15]: 356 min
- Tmax [5, 15]: 1.5 h
- AUC of mini-tablets lower than that of regular tablets (fasting) ([5]; mini-tablets with food, 200 mg Compound 1): 5%
- AUC of mini-tablets lower than that of regular tablets (fasting) ([5]; mini-tablets without food, 200 mg Compound 1 / 120 mg Compound 2, same solid dispersion formulation): 41%
- Ctrough ([6]; 3 to <6 years old, post-adjustment 150 mg/60 mg, N 10): 9.8
- Ctrough ([6]; 6 to <9 years old, post-adjustment 200 mg/80 mg, N 9): 8.2
- Ctrough ([6]; 9 to <12 years old, post-adjustment 250 mg/100 mg, N 10): 17.0
- AUC ([6]; blood, 3 to <6 years old, post-adjustment, 3 sachets, 150 mg/60 mg, N 10, read-out: AUC): 6700 ng·h/mL
- AUC ([6]; blood, 6 to <9 years old, post-adjustment, 4 sachets, 200 mg/80 mg, N 9, read-out: AUC): 5970 ng·h/mL
- AUC ([6]; blood, 9 to <12 years old, post-adjustment, 5 sachets, 250 mg/100 mg Compound 1/Compound 2, N 10, read-out: AUC): 8670 ng·h/mL
- AUC ([6]; in vivo, 3 to <6 years old, pre-adjustment, 3 sachets, 120 mg/45 mg, read-out: AUC, Geometric Mean): 3030 ng·h/mL
- AUC ([6]; in vivo, 6 to <9 years old, pre-adjustment, 4 sachets, 160 mg/60 mg, read-out: AUC, Geometric Mean): 1680 ng·h/mL
- AUC ([6]; in vivo, 9 to <12 years old, pre-adjustment, 5 sachets, 200 mg/75 mg Compound 1/Compound 2, read-out: AUC, Geometric Mean): 4070 ng·h/mL
- Metabolism ([7]; Biotransformation): Secondary
- Major route of elimination ([7]; human, in vivo): Biliary
- Tmax ([7]; human, in vivo, healthy subjects, read-out: Tmax of granules): 3 to 4 h
- Tmax ([7]; human, in vivo, healthy subjects, read-out: Tmax of tablets): 5 h
- half-life ([7]; human, in vivo, healthy subjects, read-out: t1/2 at steady-state): 360 to 540 min
- Effect of meal (relative to fasting) on adult tablets, ↑ [7, 16]: ↑ 83-163%
- Effect of meal (relative to fasting) on granules, ↑ [7, 16]: ↑ 131-168%
- AUC (clinical): 4800 ng·h/mL
- % of dose excreted in faeces [8]: 92.1^d %
- % of dose excreted in urine [8]: 0.7%
SMILES: CC(C)(C)[C@@H]1NC(=O)O[C@@H]2CCC[C@H]2OC/C=C/C(F)(F)c2nc3ccccc3nc2O[C@@H]2C[C@@H](C(=O)N[C@]3(C(=O)NS(=O)(=O)C4(C)CC4)C[C@H]3C(F)F)N(C2)C1=O [Compound 1]
- Exposures in children aged 3 to <12 years vs adolescents 12 to <18 years and adults from Phase 2/3 studies ([6]; recommended doses according to body weight): comparable
